Test results taken from patent US6706663B2, “Herbicidal 3-heterocyclic substituted benzisothiazole and benzisoxazole compounds” (Wyeth, priority 2000, dated 2004).

Legend:
[1] = system: SAGPY (Sagittaria pygmaea); assay: Flooded paddy, preemergence weed control; assay type: in vivo, L.; conditions: rated 3-4 weeks after treatment, 0-9 rating scale
Method in brief: (§1)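 Plants were established from seed or propagating organs in flooded silt loam, with the water surface held 1.5 to 3 cm above the soil for the entire experiment. Injury was assessed visually against a control and given a 0-9 score.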

ORYSAT (Rice, Tebonnet) [2] = assay: Postemergence herbicidal evaluation; assay type: in vivo, Oryza sativa, (L.) Tebonnet; conditions: postemergence
Method in brief: (§2)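 Seedlings grown for about two weeks were sprayed postemergence and then kept under standard greenhouse care. Injury was rated visually 4–5 weeks after treatment on a 0–9 scale against untreated controls, and ratings from repeat tests were averaged.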

[3] = system: AMBEL (Ambrosia artemisifolia); assay: Postemergence herbicidal evaluation; assay type: in vivo, L.; conditions: postemergence
Method in brief: as §2

[4] = system: CHEAL (Chenopodium album); assay: Postemergence herbicidal evaluation; assay type: in vivo, L.; conditions: postemergence
Method in brief: as §2

[5] = system: CASOB (Cassia obtusifolia); assay: Postemergence herbicidal evaluation; assay type: in vivo, L.; conditions: postemergence
Method in brief: as §2

[6] = system: AMBEL (Ambrosia artemisifolia); assay: Preemergence herbicidal evaluation; assay type: in vivo, L.; conditions: rated 4-5 weeks after treatment
Method in brief: (§3)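 Seeds mixed with potting soil were planted atop about one inch of soil, then sprayed with test compound in aqueous acetone. Cups were kept in the greenhouse and rated visually 4–5 weeks after treatment on a 0–9 scale against untreated control.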

[7] = system: CHEAL (Chenopodium album); assay: Preemergence herbicidal evaluation; assay type: in vivo, L.; conditions: rated 4-5 weeks after treatment
Method in brief: as §3

[8] = system: CASOB (Cassia obtusifolia); assay: Preemergence herbicidal evaluation; assay type: in vivo, L.; conditions: rated 4-5 weeks after treatment
Method in brief: as §3

[9] = system: IPOHE (Ipomoea hederacea); assay: Postemergence herbicidal evaluation; assay type: in vivo, (L.) Jacq.; conditions: postemergence
Method in brief: as §2

SETVI (Setaria viridis) [10] = assay: Preemergence herbicidal evaluation; assay type: in vivo, (L.) Beau; conditions: rated 4-5 weeks after treatment
Method in brief: as §3

[11] = system: ECHCG (Echinochloa crus-galli); assay: Preemergence herbicidal evaluation; assay type: in vivo, (L.) Beau; conditions: rated 4-5 weeks after treatment
Method in brief: as §3

GALAP (Galium aparine) [12] = assay: Postemergence herbicidal evaluation; assay type: in vivo; conditions: postemergence
Method in brief: as §2

CYPIR (Cyperus iria) = assay: Flooded paddy, preemergence weed control; assay type: in vivo; conditions: rated 3-4 weeks after treatment, 0-9 rating scale
Method in brief: as §1

[13] = system: MOOVA (Monochoria vaginalis); assay: Flooded paddy, preemergence weed control; assay type: in vivo, Presl.; conditions: rated 3-4 weeks after treatment, 0-9 rating scale
Method in brief: as §1

[14] = system: TRZAWR (Wheat, Winter, cv Riband); assay: Postemergence herbicidal evaluation; assay type: in vivo, Triticum aestivum; conditions: postemergence
Method in brief: as §2

ORYSAT (Rice, Tebonnet) [15] = assay: Preemergence herbicidal evaluation; assay type: in vivo, Oryza sativa, (L.) Tebonnet; conditions: rated 4-5 weeks after treatment
SETVI (Setaria viridis) [16] = assay: Postemergence herbicidal evaluation; assay type: in vivo, (L.) Beau; conditions: postemergence
Method in brief: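 Seedlings grown about two weeks were sprayed with compound in 50/50 acetone/water containing 0.5% TWEEN 20, at about 0.0040 to 1.000 kg/ha via nozzle at 40 psi. Plants were kept under greenhouse conditions and visually rated on a 0-9 scale versus control four to five weeks after treatment; replicate tests averaged.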

GALAP (Galium aparine) [17] = assay: Preemergence herbicidal evaluation; assay type: in vivo; conditions: rated 4-5 weeks after treatment
Method in brief: as §3

[18] = system: ABUTH (Abutilon theophrasti); assay: Postemergence herbicidal evaluation; assay type: in vivo, Medic.; conditions: postemergence
Method in brief: as §2

With Cc1sccc1-c1nsc2ccc(-n3c(=O)cc(C(F)(F)F)n(C)c3=O)cc12 [Compound 68, 2,4(1H,3H)-pyrimidinedione, 1-methyl-3-[3-(2-methyl-3-thienyl)-1,2-benzisothiazol-5-yl]-6-(trifluoromethyl)-] the “herbicidal rating, SAGPY” value ([1]; rate 0.0080 kg/ha) was 0.0, the “herbicidal rating, SAGPY” value ([1]; rate 0.0320 kg/ha) was 0.0 and the “herbicidal rating, SAGPY” value ([1]; rate 0.1250 kg/ha) was 9.0. For the same molecule, the ORYSAT herbicidal rating (ORYSAT (Rice, Tebonnet) [2]; rate 0.0320 kg/ha) was 4.0, the ORYSAT herbicidal rating (ORYSAT (Rice, Tebonnet) [2]; rate 0.0620 kg/ha) was 5.0 and the AMBEL herbicidal rating ([3]; rate 0.0320 kg/ha) was 9.0. The AMBEL herbicidal rating ([3]; rate 0.0620 kg/ha) was 9.0, the CHEAL herbicidal rating ([4]; rate 0.0320 kg/ha) was 9.0 and the CHEAL herbicidal rating ([4]; rate 0.0620 kg/ha) was 9.0. The CASOB herbicidal rating ([5]; rate 0.0320 kg/ha) was 5.0, the CASOB herbicidal rating ([5]; rate 0.0620 kg/ha) was 6.0 and the “Preemergence herbicidal rating AMBEL” value ([6]; Rate 0.0620 kg/ha) was 3.5. The “Preemergence herbicidal rating AMBEL” value ([6]; Rate 0.1250 kg/ha) was 5.0, the “Preemergence herbicidal rating AMBEL” value ([6]; Rate 0.2500 kg/ha) was 9.0 and the “Preemergence herbicidal rating CHEAL” value ([7]; Rate 0.0620 kg/ha) was 9.0. The “Preemergence herbicidal rating CHEAL” value ([7]; Rate 0.1250 kg/ha) was 9.0, the “Preemergence herbicidal rating CHEAL” value ([7]; Rate 0.2500 kg/ha) was 9.0 and the “Preemergence herbicidal rating CASOB” value ([8]; Rate 0.0620 kg/ha) was 0.5. The “Preemergence herbicidal rating CASOB” value ([8]; Rate 0.1250 kg/ha) was 3.0, the “Preemergence herbicidal rating CASOB” value ([8]; Rate 0.2500 kg/ha) was 5.5 and the IPOHE herbicidal rating ([9]; rate 0.0320 kg/ha) was 9.0. The IPOHE herbicidal rating ([9]; rate 0.0620 kg/ha) was 9.0, the “Preemergence herbicidal rating SETVI” value (SETVI (Setaria viridis) [10]; Rate 0.0620 kg/ha) was 9.0 and the “Preemergence herbicidal rating SETVI” value (SETVI (Setaria viridis) [10]; Rate 0.1250 kg/ha) was 9.0. The “Preemergence herbicidal rating SETVI” value (SETVI (Setaria viridis) [10]; Rate 0.2500 kg/ha) was 9.0, the “Preemergence herbicidal rating ECHCG” value ([11]; Rate 0.0620 kg/ha) was 8.5 and the “Preemergence herbicidal rating ECHCG” value ([11]; Rate 0.1250 kg/ha) was 9.0. The “Preemergence herbicidal rating ECHCG” value ([11]; Rate 0.2500 kg/ha) was 9.0, the GALAP herbicidal rating (GALAP (Galium aparine) [12]; rate 0.0320 kg/ha) was 9.0 and the GALAP herbicidal rating (GALAP (Galium aparine) [12]; rate 0.0620 kg/ha) was 9.0. The “herbicidal rating, CYPIR” value (CYPIR (Cyperus iria); rate 0.0080 kg/ha) was 0.0, the “herbicidal rating, CYPIR” value (CYPIR (Cyperus iria); rate 0.0320 kg/ha) was 9.0 and the “herbicidal rating, CYPIR” value (CYPIR (Cyperus iria); rate 0.1250 kg/ha) was 9.0. The “herbicidal rating, MOOVA” value ([13]; rate 0.0080 kg/ha) was 7.0, the “herbicidal rating, MOOVA” value ([13]; rate 0.0320 kg/ha) was 9.0 and the “herbicidal rating, MOOVA” value ([13]; rate 0.1250 kg/ha) was 9.0. For the same molecule, the TRZAWR herbicidal rating ([14]; rate 0.0320 kg/ha) was 4.0, the TRZAWR herbicidal rating ([14]; rate 0.0620 kg/ha) was 4.5 and the “Preemergence herbicidal rating ORYSAT” value (ORYSAT (Rice, Tebonnet) [15]; Rate 0.0620 kg/ha) was 2.0. For the same molecule, the “Preemergence herbicidal rating ORYSAT” value (ORYSAT (Rice, Tebonnet) [15]; Rate 0.1250 kg/ha) was 3.5, the “Preemergence herbicidal rating ORYSAT” value (ORYSAT (Rice, Tebonnet) [15]; Rate 0.2500 kg/ha) was 5.0 and the SETVI herbicidal rating (SETVI (Setaria viridis) [16]; rate 0.0320 kg/ha) was 4.0. The SETVI herbicidal rating (SETVI (Setaria viridis) [16]; rate 0.0620 kg/ha) was 8.0, the “Preemergence herbicidal rating GALAP” value (GALAP (Galium aparine) [17]; Rate 0.0620 kg/ha) was 7.0 and the “Preemergence herbicidal rating GALAP” value (GALAP (Galium aparine) [17]; Rate 0.1250 kg/ha) was 6.0. The “Preemergence herbicidal rating GALAP” value (GALAP (Galium aparine) [17]; Rate 0.2500 kg/ha) was 9.0, the ABUTH herbicidal rating ([18]; rate 0.0320 kg/ha) was 9.0 and the ABUTH herbicidal rating ([18]; rate 0.0620 kg/ha) was 9.0.

For Cn1c(C(F)(F)F)cc(=O)n(-c2ccc3snc(C4OCC5(CO4)CO5)c3c2)c1=O (centres unmarked) [Compound 70, 1-methyl-3-(3-spiro[m-dioxane-5,2′-oxiran]-2-yl-1,2-benzisothiazol-5-yl)-6-(trifluoromethyl)uracil], the “herbicidal rating, SAGPY” value ([1]; rate 0.0080 kg/ha) was 0.0, the “herbicidal rating, SAGPY” value ([1]; rate 0.0320 kg/ha) was 0.0 and the “herbicidal rating, SAGPY” value ([1]; rate 0.1250 kg/ha) was 0.0. It also gave an ORYSAT herbicidal rating (ORYSAT (Rice, Tebonnet) [2]; rate 0.0320 kg/ha) of 5.0, an ORYSAT herbicidal rating (ORYSAT (Rice, Tebonnet) [2]; rate 0.0620 kg/ha) of 6.0 and an AMBEL herbicidal rating ([3]; rate 0.0320 kg/ha) of 9.0. The AMBEL herbicidal rating ([3]; rate 0.0620 kg/ha) was 9.0, the CHEAL herbicidal rating ([4]; rate 0.0320 kg/ha) was 9.0 and the CHEAL herbicidal rating ([4]; rate 0.0620 kg/ha) was 9.0. For the same molecule, the CASOB herbicidal rating ([5]; rate 0.0320 kg/ha) was 5.0, the CASOB herbicidal rating ([5]; rate 0.0620 kg/ha) was 5.0 and the “Preemergence herbicidal rating AMBEL” value ([6]; Rate 0.0620 kg/ha) was 7.0. The “Preemergence herbicidal rating AMBEL” value ([6]; Rate 0.1250 kg/ha) was 9.0, the “Preemergence herbicidal rating CHEAL” value ([7]; Rate 0.0620 kg/ha) was 9.0 and the “Preemergence herbicidal rating CHEAL” value ([7]; Rate 0.1250 kg/ha) was 9.0. For the same molecule, the “Preemergence herbicidal rating CASOB” value ([8]; Rate 0.0620 kg/ha) was 2.0, the “Preemergence herbicidal rating CASOB” value ([8]; Rate 0.1250 kg/ha) was 2.0 and the IPOHE herbicidal rating ([9]; rate 0.0320 kg/ha) was 7.0. For the same molecule, the IPOHE herbicidal rating ([9]; rate 0.0620 kg/ha) was 9.0, the “Preemergence herbicidal rating SETVI” value (SETVI (Setaria viridis) [10]; Rate 0.0620 kg/ha) was 6.0 and the “Preemergence herbicidal rating SETVI” value (SETVI (Setaria viridis) [10]; Rate 0.1250 kg/ha) was 9.0. For the same molecule, the “Preemergence herbicidal rating ECHCG” value ([11]; Rate 0.0620 kg/ha) was 3.0, the “Preemergence herbicidal rating ECHCG” value ([11]; Rate 0.1250 kg/ha) was 7.0 and the GALAP herbicidal rating (GALAP (Galium aparine) [12]; rate 0.0320 kg/ha) was 8.0. The GALAP herbicidal rating (GALAP (Galium aparine) [12]; rate 0.0620 kg/ha) was 9.0, the “herbicidal rating, CYPIR” value (CYPIR (Cyperus iria); rate 0.0080 kg/ha) was 0.0 and the “herbicidal rating, CYPIR” value (CYPIR (Cyperus iria); rate 0.0320 kg/ha) was 0.0. For the same molecule, the “herbicidal rating, CYPIR” value (CYPIR (Cyperus iria); rate 0.1250 kg/ha) was 0.0, the “herbicidal rating, MOOVA” value ([13]; rate 0.0080 kg/ha) was 0.0 and the “herbicidal rating, MOOVA” value ([13]; rate 0.0320 kg/ha) was 0.0. The “herbicidal rating, MOOVA” value ([13]; rate 0.1250 kg/ha) was 0.0, the TRZAWR herbicidal rating ([14]; rate 0.0320 kg/ha) was 5.0 and the TRZAWR herbicidal rating ([14]; rate 0.0620 kg/ha) was 5.5. For the same molecule, the “Preemergence herbicidal rating ORYSAT” value (ORYSAT (Rice, Tebonnet) [15]; Rate 0.0620 kg/ha) was 3.0, the “Preemergence herbicidal rating ORYSAT” value (ORYSAT (Rice, Tebonnet) [15]; Rate 0.1250 kg/ha) was 6.0 and the SETVI herbicidal rating (SETVI (Setaria viridis) [16]; rate 0.0320 kg/ha) was 9.0. For the same molecule, the SETVI herbicidal rating (SETVI (Setaria viridis) [16]; rate 0.0620 kg/ha) was 9.0, the “Preemergence herbicidal rating GALAP” value (GALAP (Galium aparine) [17]; Rate 0.0620 kg/ha) was 7.0 and the “Preemergence herbicidal rating GALAP” value (GALAP (Galium aparine) [17]; Rate 0.1250 kg/ha) was 9.0. It also gave an ABUTH herbicidal rating ([18]; rate 0.0320 kg/ha) of 9.0 and an ABUTH herbicidal rating ([18]; rate 0.0620 kg/ha) of 9.0.
